Where “and” joins values, the source holds several entries; their conditions need not be identical. Equal values may be shown once.
Legend:
Type in all cases: in vivo, pig
[1] = system: cross-bred pigs (Yorkshire×Landrace); assay: 6,6-2H-glucose tracer kinetics (fasting Ra glucose, hepatic glucose production, whole body glucose uptake) in STZ diabetic pigs; conditions: 130 mg STZ/kg
Procedure: Protocol 1: fasting hepatic glucose production and whole body glucose uptake were studied with 6,6-^2H-glucose infusion in five normal and five STZ (130 mg/kg) diabetic pigs.
Protocol 2: insulin-mediated hepatic glucose production and whole body glucose uptake were studied with the hyperinsulinemic (1 or 2 mU/kg/minute) euglycemic clamp technique in combination with 6,6-^2H-glucose infusion in six normal and seven STZ (130 mg/kg) diabetic pigs.
After overnight fasting, a 6,6-^2H-glucose solution was administered as a prime—(72 mg) continuous (1.2 mg/minute) infusion for three hours in normal pigs. In diabetic pigs, 6,6-^2H-glucose was given as an adjusted prime— (216 mg) continuous (3.6 mg/minute) infusion for three hours (Koopmans et al., 1991). Isotopic steady-state conditions were achieved within 90 minutes after initiation of the tracer infusion and steady-state calculations were carried out during the last hour of the tracer infusion (t=120, 135, 150, 165 and 180 minutes). […]
Blood samples for determination of 6,6-^2H-glucose enrichment, glucose and insulin were collected in heparinized tubes (150 USP. U. Lithium Heparin, 10 mL Venoject, Terumo, Leuven, Belgium) and immediately chilled at 0° C. on ice and centrifuged at 4° C. for ten minutes at 3000 rpm. […] Selected ion monitoring, data acquisition and quantitative calculations were performed using the HP Chemstation software. Glucose concentration was determined using the internal standard method (xylose was added as internal standard). The internal standard was monitored at m/z 145. Glucose was monitored at m/z 187 for glucose and m/z 189 for d2-glucose. Glucose enrichments were calculated by dividing the area of the m/z 189 peak and the m/z 187 peak and correcting for natural enrichments. Isotopic enrichment was calculated as tracer-to-tracee ratio after subtracting the isotopic enrichment of a background plasma sample. An aliquot of the 6,6-^2H-glucose infusate was analyzed for the isotope concentration to calculate the actual infusion rate for each infusion experiment. […]

[2] = system: cross-bred pigs (Yorkshire×Landrace); assay: Fasting and postprandial plasma lipid profiles and postprandial insulin in STZ diabetic pigs
Procedure: Fasting blood samples were taken before the start of hyperinsulinemic clamp experiments and postprandial blood samples were taken two to three hours after a morning meal in the week following a clamp study.
Blood samples for determination of triglycerides and non-esterified fatty acids (NEFA) were collected in tubes containing EDTA (0.47 mol/L EDTA, 10 mL Venoject, Terumo, Leuven, Belgium) and immediately chilled at 0° C. on ice, and centrifuged at 4° C. for ten minutes at 3000 rpm. Plasma was stored, at −20° C. in four aliquots of 0.5 mL for further analyses.
Concentrations of triglycerides, cholesterol and NEFA were measured using commercially available test kits (Boehringer Mannheim, Mannheim Germany; Human, Wiesbaden, Germany; and Wako Chemicals, Neuss, Germany, respectively).

diabetic pigs = assay: Plasma insulin response after a standard meal in diabetic pigs two and nine weeks after STZ infusion; conditions: STZ 140 mg/kg infused for ten minutes, 25 diabetic pigs
Procedure: After 24 hours fasting, a standard meal (523 kJ ME/kg BW^0.75) was fed to the pigs and blood was sampled up to 480 minutes after feeding). Pigs were studied two and nine weeks after streptozotocin (STZ) infusion (140 mg/kg for ten minutes). […] However, as judged by the severity of diabetes (quantified by the 24-hour urinary glucose excretion in relation to standard meal feeding), the recovery/regeneration/hypertrophy of beta-cells takes place in the first three to four weeks after STZ infusion and stops after that time period (see FIG. 6).

[3] = pigs, STZ 130 mg/kg, two to three hours after morning meal

## CN(N=O)C(=O)N[C@H]1C(O)O[C@H](CO)[C@@H](O)[C@@H]1O (mixture of isomers) [STZ, streptozotocin]
[1]
  Fasting Ra glucose compared to normal pigs: approximately two-fold greater
  Insulin-inhibited hepatic glucose production versus normal pigs: two-fold greater
  Insulin-stimulated whole body glucose uptake versus normal pigs: three-fold lower
[2]; STZ diabetic pigs, two to three hours after feeding, detection limit
  Postprandial plasma insulin: ~1 mU/L
[2]; pigs, STZ 130 mg/kg
  Fasting cholesterol and NEFA concentrations compared to normal pigs: did not differ
  Fasting plasma NEFA: 0.9 ± 0.3 mmol/L
  Fasting plasma cholesterol: 2.1 ± 0.2 mmol/L
  Fasting plasma triglyceride elevation compared to normal pigs: five-fold
  Fasting plasma triglycerides: 1.0 mmol/L and 1.0 ± 0.3 mmol/L
  Postprandial plasma NEFA elevation compared to normal pigs: seven-fold
  Postprandial plasma cholesterol elevation compared to normal pigs: 1.3 fold
  Postprandial plasma triglycerides elevation compared to normal pigs: four-fold
[2]; [3]
  Postprandial plasma NEFA: 1.5 ± 0.5 mmol/L
  Postprandial plasma cholesterol: 2.3 ± 0.2 mmol/L
  Postprandial plasma trigylcerides: 1.2 mmol/L and 1.2 ± 0.3 mmol/L
Diabetic pigs
  Area under the curve for the plasma insulin response (0-480 minutes after meal), nine weeks compared to two weeks after STZ infusion: two-fold larger

— patent US20070271620A1, “Animal model for type II diabetes mellitus and Syndrome X and methods and uses thereof” (priority 2005, published 2007)
